Literature values as cited in patent US20090016973A1, “Composition and Method for the Prevention of Oral Disease” (MICROPURE, INC., priority 2007, published 2009).

What was measured:
[1] = system: protein synthesis; conditions: Benarde et al., 1967
[2] = system: protein synthesis; conditions: Roller et al., 1986
[3] = system: dehydrogenase enzymes; conditions: within the first 5 seconds of reaction; Roller et al., 1986
[4] = system: Escherichia coli; conditions: Berg et al., 1986; leading to cell death

## [O][Cl+][O-] [chlorine dioxide]
[1]
  effect on protein synthesis: abrupt inhibition
[2]
  inhibition of protein synthesis: partially inhibited
[3]
  inhibition of total dehydrogenase enzymes: inhibited completely
[4]
  permeability control of the membrane: impaired
